Target: TRKA (Homo sapiens (Human), UniProt P04629)
Experiment: Isolated TRK enzyme assay (HTRF KinEASE-TK), TRKA
Format: biochemical
Conditions: read-out: Trka enzyme (IC50)

Chain of TRKA (P04629 441-796): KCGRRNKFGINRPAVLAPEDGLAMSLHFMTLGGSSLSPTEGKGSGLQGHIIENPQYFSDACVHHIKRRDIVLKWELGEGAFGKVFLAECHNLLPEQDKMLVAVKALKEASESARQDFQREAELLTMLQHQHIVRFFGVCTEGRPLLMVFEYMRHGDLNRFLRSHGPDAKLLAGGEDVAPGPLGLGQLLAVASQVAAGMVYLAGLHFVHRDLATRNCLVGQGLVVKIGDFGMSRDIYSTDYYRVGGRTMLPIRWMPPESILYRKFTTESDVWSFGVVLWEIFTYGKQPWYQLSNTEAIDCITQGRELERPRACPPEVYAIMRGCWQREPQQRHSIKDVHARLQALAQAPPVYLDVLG

Structure (SMILES)	IC50
Cn1cc(C(=O)c2cncc(NC(=O)Cc3ccc(S(C)(=O)=O)cc3)c2)c2cncnc21 [Example 173, N-{5-[(7-methyl-7H-pyrrolo[2,3-d]pyrimidin-5-yl)carbonyl]pyridin-3-yl}-2-[4-(methylsulfonyl)phenyl]acetamide]	9810 nM
Cc1cc(C(F)(F)F)nn1CC(=O)Nc1cncc(C(=O)c2cn(C(C)(CO)CO)c3ncncc23)c1 [Example 234, N-[5-({7-[2-hydroxy-1-(hydroxymethyl)-1-methylethyl]-7H-pyrrolo[2,3-d]pyrimidin-5-yl}carbonyl)pyridin-3-yl]-2-[5-methyl-3-(trifluoromethyl)-1H-pyrazol-1-yl]acetamide]	84.9 nM
CC(C)n1cc(C(=O)c2cncc(NC(=O)c3cnc4c(c3)OCCO4)c2)c2cncnc21 [Example 446, 2,3-Dihydro-1,4-dioxino[2,3-b]pyridine-7-carboxylic acid [5-(7-isopropyl-7H-pyrrolo[2,3-d]pyrimidine-5-carbonyl)-pyridin-3-yl]-amide]	812 nM
CCOc1ncc(C(=O)c2cn(C(C)C)c3ncncc23)cc1NC(=O)Cn1nc(C(F)(F)F)cc1C [Example 519, N-[2-Ethoxy-5-(7-isopropyl-7H-pyrrolo[2,3-d]pyrimidine-5-carbonyl)-pyridin-3-yl]-2-(5-methyl-3-trifluoromethyl-pyrazol-1-yl)-acetamide]	47.9 nM
Cc1nc(C)c(C(=O)Nc2cncc(C(=O)c3cn(C(C)C)c4ncncc34)c2)o1 [Example 456, 2,4-Dimethyl-oxazole-5-carboxylic acid [5-(7-isopropyl-7H-pyrrolo[2,3-d]pyrimidine-5-carbonyl)-pyridin-3-yl]-amide]	6960 nM
Cn1cc(C(=O)c2cncc(NC(=O)COc3ccccc3OC(F)(F)F)c2)c2cncnc21 [Example 325, N-{5-[(7-methyl-7H-pyrrolo[2,3-d]pyrimidin-5-yl)carbonyl]pyridin-3-yl}-2-[2-(trifluoromethoxy)phenoxy]acetamide]	111 nM
CC(C)c1nnc2ccc(C(=O)Nc3cncc(C(=O)c4cn(C(C)C)c5ncncc45)c3)cn12 [Example 492, 3-Isopropyl-1,2,4-triazolo[4,3-a]pyridine-6-carboxylic acid [5-(7-isopropyl-7H-pyrrolo[2,3-d]pyrimidine-5-carbonyl)-pyridin-3-yl]-amide]	1690 nM
C[C@@H](CO)n1cc(C(=O)c2cncc(NC(=O)Cc3ccc(OC(F)(F)F)cc3)c2)c2cncnc21 [Example 534, N-{5-[7-((S)-2-Hydroxy-1-methyl-ethyl)-7H-pyrrolo[2,3-d]pyrimidine-5-carbonyl]-pyridin-3-yl}-2-(4-trifluoromethoxy-phenyl)-acetamide]	20.3 nM
CC(C)n1cc(C(=O)c2cncc(NC(=O)Cn3nnc4cc(Cl)ccc43)c2)c2cncnc21 [Example 119, 2-(5-chloro-1H-benzotriazol-1-yl)-N-{5-[(7-isopropyl-7H-pyrrolo[2,3-d]pyrimidin-5-yl)carbonyl]pyridin-3-yl}acetamide]	233 nM
CC(C)n1cc(C(=O)c2cncc(NC(=O)c3cn(C4CCC4)cn3)c2)c2cncnc21 [Example 500, 1-Cyclobutyl-1H-imidazole-4-carboxylic acid [5-(7-isopropyl-7H-pyrrolo[2,3-d]pyrimidine-5-carbonyl)-pyridin-3-yl]-amide]	25.8 nM
CC(C)n1cc(C(=O)c2cncc(NC(=O)Cc3ccc(C(F)(F)F)cc3)c2)c2cnc(N)nc21 [Example 244, N-{5-[(2-amino-7-isopropyl-7H-pyrrolo[2,3-d]pyrimidin-5-yl)carbonyl]pyridin-3-yl}-2-[4-(trifluoromethyl)phenyl]acetamide]	4.69 nM
CC(C)n1cc(C(=O)c2cncc(NC(=O)c3c(C(F)(F)F)nn(C)c3Cl)c2)c2cncnc21 [Example 441, 5-Chloro-1-methyl-3-trifluoromethyl-1H-pyrazole-4-carboxylic acid [5-(7-isopropyl-7H-pyrrolo[2,3-d]pyrimidine-5-carbonyl)-pyridin-3-yl]-amide]	8390 nM
CC(C)n1ncc(CC(=O)Nc2cncc(C(=O)c3cn(C(C)(C)CO)c4nc(N)ncc34)c2)c1C(F)(F)F [Example 260, N-(5-{[2-amino-7-(2-hydroxy-1,1-dimethylethyl)-7H-pyrrolo[2,3-d]pyrimidin-5-yl]carbonyl}pyridin-3-yl)-2-[1-isopropyl-5-(trifluoromethyl)-1H-pyrazol-4-yl]acetamide]	16.8 nM
CC(CO)n1cc(C(=O)c2cncc(NC(=O)Cc3ccc4cccnc4c3)c2)c2cnc(N)nc21 (single isomer, unassigned) [Example 211, N-(5-{[2-amino-7-(2-hydroxy-1-methylethyl)-7H-pyrrolo[2,3-d]pyrimidin-5-yl]carbonyl}pyridin-3-yl)-2-quinolin-7-ylacetamide]	34.9 nM
Cn1cc(C(=O)c2cncc(NC(=O)CCc3cccc(F)c3)c2)c2cncnc21 [Example 324, 3-(3-fluorophenyl)-N-{5-[(7-methyl-7H-pyrrolo[2,3-d]pyrimidin-5-yl)carbonyl]pyridin-3-yl}propanamide]	3100 nM
CC(CO)n1cc(C(=O)c2cncc(NC(=O)Cc3cccc(C(F)(F)F)c3)c2)c2cnc(N)nc21 (single isomer, unassigned) [Example 213, N-(5-{[2-amino-7-(2-hydroxy-1-methylethyl)-7H-pyrrolo[2,3-d]pyrimidin-5-yl]carbonyl}pyridin-3-yl)-2-[3-(trifluoromethyl)phenyl]acetamide]	3.03 nM

Structure (SMILES)	IC50
CC(C(=O)N(C)C)n1cc(C(=O)c2cncc(NC(=O)Cc3ccc(Cl)cc3)c2)c2cncnc21 (racemic) [Example 230, 2-{5-[(5-{[(4-Chlorophenyl)acetyl]amino}pyridin-3-yl)carbonyl]-7H-pyrrolo[2,3-d]pyrimidin-7-yl}-N,N-dimethylpropanamide]	63.7 nM
CC(C)n1cc(C(=O)c2cncc(NC(=O)Cc3c[nH]c4ccc(O)cc34)c2)c2cncnc21 [Example 158, 2-(5-hydroxy-1H-indol-3-yl)-N-{5-[(7-isopropyl-7H-pyrrolo[2,3-d]pyrimidin-5-yl)carbonyl]pyridin-3-yl}acetamide]	230 nM
CC(C)n1cc(C(=O)c2cncc(NC(=O)c3cc4cc[nH]c4cn3)c2)c2cncnc21 [Example 392, 1H-Pyrrolo[2,3-c]pyridine-5-carboxylic acid [5-(7-isopropyl-7H-pyrrolo[2,3-d]pyrimidine-5-carbonyl)-pyridin-3-yl]-amide]	135 nM
CC(C)(CO)n1cc(C(=O)c2cncc(NC(=O)Cn3cc(C4CC4)cn3)c2)c2cnc(N)nc21 [Example 576, N-{5-[2-Amino-7-(2-hydroxy-1,1-dimethyl-ethyl)-7H-pyrrolo[2,3-d]pyrimidine-5-carbonyl]-pyridin-3-yl}-2-(4-cyclopropyl-pyrazol-1-yl)-acetamide]	296 nM
CC(C)n1cc(C(=O)c2cncc(NC(=O)c3cc4cscc4cn3)c2)c2cncnc21 [Example 478, Thieno[3,4-c]pyridine-6-carboxylic acid [5-(7-isopropyl-7H-pyrrolo[2,3-d]pyrimidine-5-carbonyl)-pyridin-3-yl]-amide]	587 nM
Cn1cc(C(=O)c2cncc(NC(=O)Cc3ccc(Cl)cc3)c2)c2cncnc21 [Example 319, 2-(4-chlorophenyl)-N-{5-[(7-methyl-7H-pyrrolo[2,3-d]pyrimidin-5-yl)carbonyl]pyridin-3-yl}acetamide]	188 nM
COc1cc(OC)nc(C(=O)Nc2cncc(C(=O)c3cn(C(C)C)c4ncncc34)c2)n1 [Example 463, 4,6-Dimethoxy-pyrimidine-2-carboxylic acid [5-(7-isopropyl-7H-pyrrolo[2,3-d]pyrimidine-5-carbonyl)-pyridin-3-yl]-amide]	186 nM
O=C(Cc1cccc(OC(F)(F)F)c1)Nc1cncc(C(=O)c2cn(C(CO)CO)c3ncncc23)c1 [Example 279, N-[5-({7-[2-hydroxy-1-(hydroxymethyl)ethyl]-7H-pyrrolo[2,3-d]pyrimidin-5-yl}carbonyl)pyridin-3-yl]-2-[3-(trifluoromethoxy)phenyl]acetamide]	439 nM
COCC(C)(C)n1cc(C(=O)c2cncc(NC(=O)Cc3ccc(F)cn3)c2)c2cncnc21 [Example 537, 2-(5-Fluoro-pyridin-2-yl)-N-{5-[7-(2-methoxy-1,1-dimethyl-ethyl)-7H-pyrrolo[2,3-d]pyrimidine-5-carbonyl]-pyridin-3-yl}-acetamide]	10.6 nM
CC(CO)(CO)n1cc(C(=O)c2cncc(NC(=O)Cc3ccc4cccnc4c3)c2)c2cncnc21 [Example 233, N-[5-({7-[2-hydroxy-1-(hydroxymethyl)-1-methylethyl]-7H-pyrrolo[2,3-d]pyrimidin-5-yl}carbonyl)pyridin-3-yl]-2-quinolin-7-ylacetamide]	96.5 nM
CC(C)n1cc(C(=O)c2cncc(NC(=O)Cc3cccc(S(C)(=O)=O)c3)c2)c2cncnc21 [Example 87, N-{5-[(7-isopropyl-7H-pyrrolo[2,3-d]pyrimidin-5-yl)carbonyl]pyridin-3-yl}-2-[3-(methylsulfonyl)phenyl]acetamide]	63.2 nM
CC(C)n1cc(C(=O)c2cncc(NC(=O)c3cccnn3)c2)c2cncnc21 [Example 386, Pyridazine-3-carboxylic acid [5-(7-isopropyl-7H-pyrrolo[2,3-d]pyrimidine-5-carbonyl)-pyridin-3-yl]-amide]	9800 nM
Cc1ccc2ccc(CC(=O)Nc3cncc(C(=O)c4cn(C)c5ncncc45)c3)cc2n1 [Example 178, N-{5-[(7-methyl-7H-pyrrolo[2,3-d]pyrimidin-5-yl)carbonyl]pyridin-3-yl}-2-(2-methylquinolin-7-yl)acetamide]	3100 nM
Cc1cc(C(=O)Nc2cncc(C(=O)c3cn(C(C)C)c4ncncc34)c2)no1 [Example 462, 5-Methyl-isoxazole-3-carboxylic acid [5-(7-isopropyl-7H-pyrrolo[2,3-d]pyrimidine-5-carbonyl)-pyridin-3-yl]-amide]	1320 nM
CC(CO)(CO)n1cc(C(=O)c2cncc(NC(=O)Cc3ccc(C(F)(F)F)cc3)c2)c2cncnc21 [Example 236, N-[5-({7-[2-hydroxy-1-(hydroxymethyl)-1-methylethyl]-7H-pyrrolo[2,3-d]pyrimidin-5-yl}carbonyl)pyridin-3-yl]-2-[4-(trifluoromethyl)phenyl]acetamide]	25.2 nM
